PubChem BioAssay AID2060600 (Molecular Pharmacology Branch, DTP, NCI, 2025)

Test system: 996289-038-R-J1-PDC complex spheroid viability
Assay: Anticancer human tumor 996289-038-R-J1-PDC patient-derived colon adenocarcinoma cell line growth inhibition [CLK]
Details: for IC50: curve of first compound; for viability, T/C: stronger effect = lower value
How it was run: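 Multi-cell-type spheroids combined patient-derived tumor cells with HUVEC endothelial cells and human mesenchymal stem cells. Paired agents were dosed in half-log steps down from about clinical Cmax, or from 10 microM where Cmax was unknown.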

[1] = second compound 0.0316 µM, first compound 0.0316 µM
[2] = second compound 0.0316 µM, first compound 0.1 µM
[3] = second compound 0.1 µM, first compound 0.0316 µM
[4] = second compound 0.1 µM, first compound 0.1 µM
[5] = second compound 0.316 µM, first compound 0.0316 µM
[6] = second compound 0.316 µM, first compound 0.1 µM
[7] = second compound 1 µM, first compound 0.0316 µM
[8] = second compound 1 µM, first compound 0.1 µM
[9] = second compound 3.16 µM, first compound 0.0316 µM
[10] = second compound 3.16 µM, first compound 0.1 µM
[11] = second compound 10 µM, first compound 0.0316 µM
[12] = second compound 10 µM, first compound 0.1 µM
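Further: spheroids exposed to the agents for 7 days before readout.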

CC(C)CC(NC(=O)C(Cc1ccccc1)NC(=O)c1cnccn1)B(O)O (stereo unspecified) + CNC(=O)c1ccc(Nc2nc(OC3CCCC3)c3c(-c4ccc5nc(C)oc5c4)c[nH]c3n2)c(OC)c1
IC50 (second compound 0.0316 µM): 4.57 nM | IC50 (second compound 0.1 µM): 4.21 nM | IC50 (second compound 0.316 µM): 1.84 nM | IC50 (second compound 1 µM): 1.32 nM | IC50 (second compound 3.16 µM): 1.14 nM | IC50 (second compound 10 µM): 1.1 nM | viability, T/C (second compound 0.0316 µM, first compound 0.000949 µM): 121% | viability, T/C (second compound 0.0316 µM, first compound 0.003 µM): 76.2% | viability, T/C (second compound 0.0316 µM, first compound 0.00949 µM): 4.49% | viability, T/C (second compound 0.0316 µM, first compound 0.03 µM): 0.95% | viability, T/C (second compound 0.0316 µM, first compound 0.0949 µM): 3.14% | viability, T/C (second compound 0.0316 µM, first compound 0.3 µM): 0.51% | viability, T/C (second compound 0.1 µM, first compound 0.000949 µM): 139% | viability, T/C (second compound 0.1 µM, first compound 0.003 µM): 70% | viability, T/C (second compound 0.1 µM, first compound 0.00949 µM): 1.94% | viability, T/C (second compound 0.1 µM, first compound 0.03 µM): 0.61% | viability, T/C (second compound 0.1 µM, first compound 0.0949 µM): 0.54% | viability, T/C (second compound 0.1 µM, first compound 0.3 µM): 0.26% | viability, T/C (second compound 0.316 µM, first compound 0.000949 µM): 76.2% | viability, T/C (second compound 0.316 µM, first compound 0.003 µM): 30.4% | viability, T/C (second compound 0.316 µM, first compound 0.00949 µM): 0.98% | viability, T/C (second compound 0.316 µM, first compound 0.03 µM): 1.34% | viability, T/C (second compound 0.316 µM, first compound 0.0949 µM): 0.59% | viability, T/C (second compound 0.316 µM, first compound 0.3 µM): 1.22% | viability, T/C (second compound 1 µM, first compound 0.000949 µM): 66.4% | viability, T/C (second compound 1 µM, first compound 0.003 µM): 9.51% | viability, T/C (second compound 1 µM, first compound 0.00949 µM): 0.47% | viability, T/C (second compound 1 µM, first compound 0.03 µM): 0.42% | viability, T/C (second compound 1 µM, first compound 0.0949 µM): 3.6% | viability, T/C (second compound 1 µM, first compound 0.3 µM): 1.03% | viability, T/C (second compound 3.16 µM, first compound 0.000949 µM): 58.1% | viability, T/C (second compound 3.16 µM, first compound 0.003 µM): 6.51% | viability, T/C (second compound 3.16 µM, first compound 0.00949 µM): 1.11% | viability, T/C (second compound 3.16 µM, first compound 0.03 µM): 0.54% | viability, T/C (second compound 3.16 µM, first compound 0.0949 µM): 0.85% | viability, T/C (second compound 3.16 µM, first compound 0.3 µM): 1.44% | viability, T/C (second compound 10 µM, first compound 0.000949 µM): 56.3% | viability, T/C (second compound 10 µM, first compound 0.003 µM): 6.54% | viability, T/C (second compound 10 µM, first compound 0.00949 µM): 1.51% | viability, T/C (second compound 10 µM, first compound 0.03 µM): 0.65% | viability, T/C (second compound 10 µM, first compound 0.0949 µM): 0.7% | viability, T/C (second compound 10 µM, first compound 0.3 µM): 2.05%

Cn1ncnc1[C@H]1c2n[nH]c(=O)c3cc(F)cc(c23)N[C@@H]1c1ccc(F)cc1 + CNC(=O)c1ccc(Nc2nc(OC3CCCC3)c3c(-c4ccc5nc(C)oc5c4)c[nH]c3n2)c(OC)c1
IC50 (second compound 0.0316 µM): > 100 nM | IC50 (second compound 0.1 µM): > 100 nM | IC50 (second compound 0.316 µM): > 100 nM | IC50 (second compound 1 µM): > 100 nM | IC50 (second compound 3.16 µM): > 100 nM | IC50 (second compound 10 µM): > 100 nM | viability, T/C (second compound 0.0316 µM, first compound 0.000316 µM): 127% | viability, T/C (second compound 0.0316 µM, first compound 0.001 µM): 114% | viability, T/C (second compound 0.0316 µM, first compound 0.00316 µM): 118% | viability, T/C (second compound 0.0316 µM, first compound 0.01 µM): 124% | viability, T/C [1]: 133% | viability, T/C [2]: 108% | viability, T/C (second compound 0.1 µM, first compound 0.000316 µM): 127% | viability, T/C (second compound 0.1 µM, first compound 0.001 µM): 124% | viability, T/C (second compound 0.1 µM, first compound 0.00316 µM): 128% | viability, T/C (second compound 0.1 µM, first compound 0.01 µM): 134% | viability, T/C [3]: 124% | viability, T/C [4]: 105% | viability, T/C (second compound 0.316 µM, first compound 0.000316 µM): 86.6% | viability, T/C (second compound 0.316 µM, first compound 0.001 µM): 80.5% | viability, T/C (second compound 0.316 µM, first compound 0.00316 µM): 81.6% | viability, T/C (second compound 0.316 µM, first compound 0.01 µM): 78.8% | viability, T/C [5]: 80.9% | viability, T/C [6]: 74.9% | viability, T/C (second compound 1 µM, first compound 0.000316 µM): 74.8% | viability, T/C (second compound 1 µM, first compound 0.001 µM): 67.4% | viability, T/C (second compound 1 µM, first compound 0.00316 µM): 65.7% | viability, T/C (second compound 1 µM, first compound 0.01 µM): 64% | viability, T/C [7]: 65.5% | viability, T/C [8]: 58.6% | viability, T/C (second compound 3.16 µM, first compound 0.000316 µM): 63.7% | viability, T/C (second compound 3.16 µM, first compound 0.001 µM): 59.3% | viability, T/C (second compound 3.16 µM, first compound 0.00316 µM): 59% | viability, T/C (second compound 3.16 µM, first compound 0.01 µM): 58.5% | viability, T/C [9]: 63.7% | viability, T/C [10]: 55% | viability, T/C (second compound 10 µM, first compound 0.000316 µM): 66.1% | viability, T/C (second compound 10 µM, first compound 0.001 µM): 60.4% | viability, T/C (second compound 10 µM, first compound 0.00316 µM): 59.7% | viability, T/C (second compound 10 µM, first compound 0.01 µM): 63% | viability, T/C [11]: 63% | viability, T/C [12]: 55.7%

O=C(c1cc(Cc2n[nH]c(=O)c3ccccc23)ccc1F)N1CCN(C(=O)C2CC2)CC1 + CNC(=O)c1ccc(Nc2nc(OC3CCCC3)c3c(-c4ccc5nc(C)oc5c4)c[nH]c3n2)c(OC)c1
IC50 (second compound 0.0316 µM): > 10000 nM | IC50 (second compound 0.1 µM): > 10000 nM | IC50 (second compound 0.316 µM): > 10000 nM | IC50 (second compound 1 µM): > 10000 nM | IC50 (second compound 3.16 µM): > 10000 nM | IC50 (second compound 10 µM): > 10000 nM | viability, T/C [1]: 126% | viability, T/C [2]: 113% | viability, T/C (second compound 0.0316 µM, first compound 0.316 µM): 113% | viability, T/C (second compound 0.0316 µM, first compound 1 µM): 124% | viability, T/C (second compound 0.0316 µM, first compound 3.16 µM): 120% | viability, T/C (second compound 0.0316 µM, first compound 10 µM): 103% | viability, T/C [3]: 122% | viability, T/C [4]: 121% | viability, T/C (second compound 0.1 µM, first compound 0.316 µM): 116% | viability, T/C (second compound 0.1 µM, first compound 1 µM): 117% | viability, T/C (second compound 0.1 µM, first compound 3.16 µM): 114% | viability, T/C (second compound 0.1 µM, first compound 10 µM): 115% | viability, T/C [5]: 78.9% | viability, T/C [6]: 74.4% | viability, T/C (second compound 0.316 µM, first compound 0.316 µM): 76.3% | viability, T/C (second compound 0.316 µM, first compound 1 µM): 75.4% | viability, T/C (second compound 0.316 µM, first compound 3.16 µM): 85.3% | viability, T/C (second compound 0.316 µM, first compound 10 µM): 71.3% | viability, T/C [7]: 70.8% | viability, T/C [8]: 65.8% | viability, T/C (second compound 1 µM, first compound 0.316 µM): 64% | viability, T/C (second compound 1 µM, first compound 1 µM): 60.6% | viability, T/C (second compound 1 µM, first compound 3.16 µM): 69.3% | viability, T/C (second compound 1 µM, first compound 10 µM): 61.3% | viability, T/C [9]: 62.6% | viability, T/C [10]: 57.5% | viability, T/C (second compound 3.16 µM, first compound 0.316 µM): 58.1% | viability, T/C (second compound 3.16 µM, first compound 1 µM): 60.2% | viability, T/C (second compound 3.16 µM, first compound 3.16 µM): 64% | viability, T/C (second compound 3.16 µM, first compound 10 µM): 58.5% | viability, T/C [11]: 62.6% | viability, T/C [12]: 59.4% | viability, T/C (second compound 10 µM, first compound 0.316 µM): 61% | viability, T/C (second compound 10 µM, first compound 1 µM): 58.3% | viability, T/C (second compound 10 µM, first compound 3.16 µM): 61.1% | viability, T/C (second compound 10 µM, first compound 10 µM): 52.1%
